Measured values as given in patent US5552419A, “Arylsulfonamido-substituted hydroxamic acids” (Ciba-Geigy Corporation, priority 1993, dated 1996).

Experiments:
[1] = target: recombinant human stromelysin (Homo sapiens, UniProt P08254); assay: release of KS and S-GAG fragments into the joint in rabbits after intra-articular injection of recombinant human stromelysin; format: in vivo, rabbit; settings: 30 mg/kg, 4 hours prior to injection of human recombinant stromelysin
Experimental: The effect of compounds of the invention in-vivo can be determined in rabbits. […] Two hours later the rabbits are sacrificed, synovial lavage is collected, and keratan sulfate (KS) and sulfated glycosaminoglycan (S-GAG) fragments released into the joint are quantitated. Keratan sulfate is measured by an inhibition ELISA using the method of Thonar (Thonar, E. J.-M. A., Lenz, M. E., Klinsworth, G. K., Caterson, B., Pachman, L. M., Clickman, P.., Katz, R., Huff, J., Keuttner, K. E. Quantitation of keratan sulfate in blood as a marker of cartilage catabolism, Arthr. Rheum. 28, 1367-1376 (1985)). Sulfated glycosaminoglycans are measured by first digesting the synovial lavage with streptomyces hyaluronidase and then measuring DMB dye binding using the method of Goldberg (Goldberg, R. L. and Kolibas, L. An improved method for determining proteoglycan synthesized by chondrocytes in culture. Connect. Tiss. Res. 24, 265-275 (1990)). For an i.v. study, a compound is solubilized in 1 ml of PEG-400, and for a p.o. study, a compound is administered in 5 ml of fortified […] per kilogram of body weight.

cartilage degradation = assay: protection against cartilage degradation in a surgical model of osteoarthritis; format: in vivo
From the text: The effect in protecting against cartilage degradation in arthritic disorders can be determined e.g. in a surgical model of osteoarthritis described in Arthritis and Rheumatism, Vol. 26, 875-886 (1983).

Sequence of recombinant human stromelysin (P08254 100-477): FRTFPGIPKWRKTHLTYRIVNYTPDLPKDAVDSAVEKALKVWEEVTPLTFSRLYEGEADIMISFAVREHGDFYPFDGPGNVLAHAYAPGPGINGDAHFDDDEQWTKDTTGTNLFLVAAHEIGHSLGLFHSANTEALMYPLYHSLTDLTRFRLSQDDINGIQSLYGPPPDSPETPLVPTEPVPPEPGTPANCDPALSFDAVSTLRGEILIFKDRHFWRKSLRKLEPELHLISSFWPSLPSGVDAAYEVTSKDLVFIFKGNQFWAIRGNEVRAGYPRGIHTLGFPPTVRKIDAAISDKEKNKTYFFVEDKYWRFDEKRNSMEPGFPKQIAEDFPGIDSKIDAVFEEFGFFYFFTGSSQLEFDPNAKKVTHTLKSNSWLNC

In the case of `COc1ccc(S(=O)(=O)N(Cc2cccnc2)[C@@H](C(=O)NO)C(C)C)cc1.Cl` [N-hydroxy-2(R)-[[4-methoxybenzenesulfonyl](3-picolyl)amino]-3-methylbutanamide hydrochloride], the “inhibition in the release of KS fragments into the joint” value ([1]; KS by inhibition ELISA) was 72%, the “inhibition in the release of S-GAG fragments into the joint” value ([1]; S-GAG by DMB dye binding) was 70% and the “effect in protecting against cartilage degradation in arthritic disorders” value (cartilage degradation) was “protects against cartilage degradation”.
